The record followed here is paper PMC4534092, “Novel Penicillin Analogues as Potential Antimicrobial Agents; Design, Synthesis and Docking Studies” (PLoS ONE, 2015).

For the assay, the target named is MurC (UDP-N-acetylmuramic acid:L-alanine ligase) (Escherichia coli, UniProt P17952). The experiment in a line: Malachite green phosphate detection enzyme assay with […] MurC. Type of assay: biochemical.

Structures are written as SMILES.

Sequence of MurC (UDP-N-acetylmuramic acid:L-alanine ligase) (P17952 whole entry): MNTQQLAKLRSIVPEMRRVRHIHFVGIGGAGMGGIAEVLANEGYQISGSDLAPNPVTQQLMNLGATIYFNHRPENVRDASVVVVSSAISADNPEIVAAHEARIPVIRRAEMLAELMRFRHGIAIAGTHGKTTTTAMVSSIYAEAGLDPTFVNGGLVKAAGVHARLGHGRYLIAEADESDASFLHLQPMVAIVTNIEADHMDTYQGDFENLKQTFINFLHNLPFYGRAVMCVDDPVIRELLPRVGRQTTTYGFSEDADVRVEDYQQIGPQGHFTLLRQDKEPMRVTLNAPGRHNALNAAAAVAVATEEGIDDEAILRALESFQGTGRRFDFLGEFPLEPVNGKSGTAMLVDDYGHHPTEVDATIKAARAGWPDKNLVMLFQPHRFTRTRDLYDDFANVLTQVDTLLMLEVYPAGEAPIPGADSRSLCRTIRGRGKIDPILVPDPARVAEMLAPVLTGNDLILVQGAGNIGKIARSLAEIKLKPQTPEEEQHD

`Nc1ncnc2c1ncn2[C@@H]1O[C@H](COP(=O)(O)OP(=O)(O)CP(=O)(O)O)[C@@H](O)[C@H]1O` [AMP-PCP] came in with an IC50 of 17 µM.

For `COc1ccc2cc(C(C)C(=O)NC3C(=O)N4C3SC(C)(C)C4C(=O)O)ccc2c1` [4e, (2S,5R,6S)-6-(3'-(11'-methoxynaphthalen-5'-yl)propanamido)-3,3-dimethyl-7-oxo-4-thia-1-azabicyclo[3.2.0]heptane-2-carboxylic acid], inhibition was half-maximal at 12.5 µM (IC50).

For orientation: IC50 means the point on the concentration scale where inhibition reaches its midpoint. Higher therefore signals weaker potency.
